Laboratory results reported in the METLIN SMRT retention time set (Domingo-Almenara et al. 2019).

Test: gradient 5% acetonitrile 3 min, to 50% in 2 min, to 85% in 15 min, held 3 min, 100 µL/min
Conditions: column: Zorbax Extend-C18 2.1 x 50 mm; eluents: water / acetonitrile, 0.1% formic acid
Outline: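 Standards, all pure, were combined into mixtures of ~100 molecules and run at 100 μL/min on a Zorbax Extend-C18 column (2.1 × 50 mm, 1.8 μm) with water and acetonitrile, each containing 0.1% formic acid. A coupled quadrupole time-of-flight mass spectrometer operated in positive and negative ionization mode. Retention time values come from computationally picked adduct peaks, each inspected manually.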

Compared with `CCc1nc2c(NC(=O)NCc3ccccc3)cccn2n1`, `CC(=O)N1CCc2cc(C(=O)NCc3ccccc3)ccc21` is lower in RP-LC retention time: 778 s for the first, 736 s for the second.

Going from `COCCCNC(=O)C1CCN(c2ccc(Sc3ccc(C(C)C)cc3)nn2)CC1` to `CCc1nc2cc(N3CCC(C(=O)Nc4ccc(OC)cc4)CC3)cnc2nc1CC`, the RP-LC retention time falls from 853 s to 827 s.

First: Cc1ccc2c(Nc3ccc(C)c(F)c3)c(-c3nc(C)no3)cnc2n1
Second: Cc1cc(C)nc(Nc2nc(C)c3cc4c(cc3n2)OCO4)n1
The RP-LC retention time of the first is higher: 807 s for the first, 552 s for the second.

First: O=C([C@@H]1C[C@H](F)CN1C(=O)Nc1ccc(C(F)(F)F)cc1)N1CCCCC1
Second: O=C(Cc1cccs1)Nc1ccc(-c2nnc3n2CCCC3)cc1
The RP-LC retention time of the first is higher: 821 s for the first, 640 s for the second.

First: CCCCn1cc(S(=O)(=O)Nc2cccc(C)c2)c2cccnc21
Second: Cc1cccc(NC(=O)Nc2nccn(-c3cccc(Cl)c3)c2=O)c1
The RP-LC retention time of the first is lower: 976 s for the first, 1040 s for the second.

Going from `CCOC(=O)Cc1c(C(=O)OCC)nnc2c(-c3ccccc3)c(C)nn12` to `Cc1nn(C(C)C(=O)NCCCOC(C)C)c(=O)c2nn(-c3ccccc3)c(C)c12` (stereo not given), the RP-LC retention time falls from 1080 s to 771 s.

Going from `O=S(=O)(c1ccc(F)cc1)N1CCC(Cc2nncn2-c2ccccc2)CC1` to `O=S(=O)(Cc1ccccc1)N1CCCCC1c1nc(-c2ccccc2)n[nH]1` (stereo not given), the RP-LC retention time rises from 787 s to 943 s.

First: COc1ccc(NC(=O)c2c(O)c3cccnc3n(-c3ccccc3)c2=O)cc1OC
Second: Cc1ccc(N2CN(CC(=O)Nc3ccccc3C)S(=O)(=O)c3cccnc32)cc1
The RP-LC retention time of the first is lower: 800 s for the first, 813 s for the second.

Compared with `Cc1ccc2c(c1)C(=O)NC1(CCN(C(=O)Cc3ccccc3C)CC1)N2C`, `CN1c2c(Cl)cccc2C(=O)NC12CCN(C(=O)c1ccccc1)CC2` is lower in RP-LC retention time: 820 s for the first, 768 s for the second.

Compared with `CCOc1ccc(-c2csc(Cc3nc(-c4ccc(Cl)cc4)no3)n2)cc1`, `CCOc1ccc(C(=O)NC2CCN(c3cc(-c4ccc(Cl)cc4)[nH]n3)C2)cc1` (stereo not given) is lower in RP-LC retention time: 1360 s for the first, 820 s for the second.

First: Cc1ccc(CNC(=O)c2nc(-c3oc4c(C)cccc4c3C)no2)o1
Second: Cc1ccc(-n2c(=O)c3sccc3n(Cc3nc(-c4cccc(C)c4)no3)c2=O)cc1
The RP-LC retention time of the first is higher: 1080 s for the first, 1060 s for the second.

First: CCN1CCN(c2ccc(NC(=O)c3ccc(Cl)cc3)cn2)C1=O
Second: Cc1ccc(C(=O)Nc2cnc(-c3ccc(Cl)cc3)nc2)s1
The RP-LC retention time of the first is lower: 775 s for the first, 1130 s for the second.

Compared with `O=C(Oc1ccc(NC2=NS(=O)(=O)c3ccccc32)cc1)c1ccccc1`, `CS(=O)(=O)N1CCC(C(=O)NCc2ccccc2)Oc2ccccc21` (stereo not given) is lower in RP-LC retention time: 935 s for the first, 807 s for the second.

First: Cn1cccc(C(=O)N2CCC(CNC(=O)c3ccc(Cl)s3)CC2)c1=O
Second: Cc1ccc(-c2cc(C(=O)N3CCC(NC(=O)Cc4cccs4)CC3)[nH]n2)c(C)c1
The RP-LC retention time of the first is lower: 610 s for the first, 776 s for the second.

First: O=C(c1cn2cc(Cl)ccc2n1)N1CCN(c2ccccc2Cl)CC1
Second: Cc1cccc(N2CCN(C(=O)c3ccc4c(c3)N(C)C(=O)C3CCCCN43)CC2)c1C (stereo not given)
The RP-LC retention time of the first is lower: 946 s for the first, 1170 s for the second.

Going from `Cn1cc2c3c(cccc31)CN(C(=O)Nc1ccc(Br)cc1F)CC2` to `COCCn1cc2c3c(cccc31)CN(C(=O)Nc1cc(OC)cc(OC)c1)CC2`, the RP-LC retention time falls from 1000 s to 926 s.

Compared with `CC1CN(c2nc3c(c(=O)n(C)c(=O)n3C)n2Cc2cccc(F)c2)CC(C)O1` (stereo not given), `Cn1c(=O)c(N2CCC(NC(=O)Nc3ccccc3F)CC2)nc2ccccc21` is higher in RP-LC retention time: 885 s for the first, 910 s for the second.

First: Cc1ccc(NC(=O)N2CCN(c3nc(N)nc4sc(-c5cccnc5)nc34)CC2)cc1
Second: Cc1ccc2nc(N3CCN(c4ccccc4)CC3)c(-c3noc(C)n3)cc2c1
The RP-LC retention time of the first is higher: 799 s for the first, 699 s for the second.

First: CCc1nnc2nc(N3CCN(C(=O)C(C)Oc4ccccc4)CC3)cc(C)n12 (stereo not given)
Second: CCc1csc(-c2ccc(N3CCN(C(=O)c4ccsc4)CC3)nc2)n1
The RP-LC retention time of the first is lower: 622 s for the first, 853 s for the second.

Compared with `O=C(c1ccccc1Cl)N1CC2CC(C1)c1cccc(=O)n1C2` (stereo not given), `CC1(C(=O)NCc2ccccc2)CCCN(S(=O)(=O)c2ccccc2Cl)C1` (stereo not given) is higher in RP-LC retention time: 596 s for the first, 946 s for the second.

Going from `COCc1cn(C2CN(C(=O)c3ccc(C)s3)C2)nn1` to `COCCn1nc2n(c1=O)CCN(Cc1cccc(OC)n1)CC2`, the RP-LC retention time falls from 649 s to 515 s.

Compared with `COC(=O)c1c(C)[nH]c(C(=O)N2CCCC(C(=O)NCc3cccc(Br)c3)C2)c1C` (stereo not given), `CCOC(=O)c1c(S(=O)(=O)N2CCC(C(=O)Nc3cccc(Cl)c3)CC2)c(C)n(C)c1C` is higher in RP-LC retention time: 813 s for the first, 932 s for the second.

Going from `COc1ccc(NS(=O)(=O)c2cc3n(c2)CCCN(C)C3=O)cc1Cl` to `Cc1ccc(-n2nc(N3CCCN(S(=O)(=O)Cc4ccccc4)CC3)ccc2=O)cc1C`, the RP-LC retention time rises from 696 s to 912 s.

Compared with `CCOc1ccc(NC(=O)Cn2c(N3CCOCC3)nc(COC)cc2=O)cc1`, `O=C(Cn1ccc2ccn(CC3CC3)c2c1=O)N1CCOCC1` is lower in RP-LC retention time: 967 s for the first, 682 s for the second.

Compared with `O=C(NCC1CC1)C1(CCO)CCN(Cc2ccccc2)C1` (stereo not given), `CC(CC(=O)N1CCN(Cc2ccccc2)CC1)S(=O)(=O)c1ccc2c(c1)CCN2C(=O)C1CC1` (stereo not given) is higher in RP-LC retention time: 581 s for the first, 656 s for the second.

Compared with `CCOC(=O)c1csc(NC(=O)Cn2cnc(C)cc2=O)n1`, `CCCC(=O)Nc1nnc(SCc2ccc(Br)cc2)s1` is higher in RP-LC retention time: 598 s for the first, 934 s for the second.

Going from `CC(C)n1c(N2CCN(C(=O)c3ccc4nccnc4c3)CC2)cc(=O)n(C(C)C)c1=O` to `O=C(O)c1ccc(N2CCN(c3ccccn3)CC2)c(NS(=O)(=O)c2cc(F)ccc2F)c1`, the RP-LC retention time falls from 701 s to 640 s.

Going from `Cc1ccc(NS(=O)(=O)c2c(C)nc3sc4cc(C)ccc4n3c2=O)c(C)c1` to `Cc1sc2ccn(C)c(=O)c2c1C(=O)NCc1ccc(F)cc1Cl`, the RP-LC retention time falls from 1230 s to 827 s.

Going from `O=C(NCC1CC1)c1sc2ncccc2c1-n1cccc1` to `COC(=O)CNC(=O)c1sc2ncccc2c1-n1cccc1`, the RP-LC retention time falls from 902 s to 736 s.

Compared with `COC(=O)c1ccccc1NC(=O)Cn1c(=O)c(CCC(=O)NCC(C)C)nc2ccccc21`, `CCOc1ccccc1NC(=O)C1CC(=O)N(c2n[nH]c3ccccc23)C1` (stereo not given) is lower in RP-LC retention time: 878 s for the first, 767 s for the second.

Compared with `OC(COc1ccc(F)cc1)CN1CCN(c2cccc(Cl)c2)CC1` (stereo not given), `Cc1ccccc1-c1noc(CCc2nnc3ccc(N4CCN(c5ccc(F)cc5)CC4)nn23)n1` is higher in RP-LC retention time: 734 s for the first, 1110 s for the second.

Compared with `Cc1sc(-c2cc(C(F)(F)F)on2)cc1S(=O)(=O)N1CCC2(CC1)OCCO2`, `Cc1ccc(S(=O)(=O)N2CCCC2c2nc(-c3cccc(C(F)(F)F)c3)no2)cc1` (stereo not given) is higher in RP-LC retention time: 1120 s for the first, 1210 s for the second.

Compared with `Cc1c(Cl)cccc1NC(=O)N1CCC(OC2CCN(S(C)(=O)=O)CC2)CC1`, `CN1CCN(C(=O)C2CCN(S(=O)(=O)c3cc(-c4noc(C5CCC5)n4)cs3)CC2)CC1` is lower in RP-LC retention time: 743 s for the first, 672 s for the second.

First: Cc1ccc2sc(N(Cc3ccccn3)C(=O)C3COc4ccccc4O3)nc2c1C (stereo not given)
Second: Cc1ccc(CN2CC(=O)N(CCc3ccccn3)C(c3cccs3)C2=O)cc1 (stereo not given)
The RP-LC retention time of the first is higher: 1250 s for the first, 559 s for the second.

First: CCc1ccc(C2CC(=O)Nc3c(S(=O)(=O)c4ccccc4)csc32)cc1 (stereo not given)
Second: CCS(=O)(=O)N1CC(=O)N(c2ccc(F)cc2)C(C)(C(=O)NCc2ccccc2)C1 (stereo not given)
The RP-LC retention time of the first is higher: 1060 s for the first, 778 s for the second.

Going from `O=C(Nc1ccccc1F)C1CCCN(S(=O)(=O)Cc2ccccc2)C1` (stereo not given) to `CC(Cc1ccco1)NC(=O)c1ccc(N2CCCCC2)c(S(=O)(=O)N2CCCCC2)c1` (stereo not given), the RP-LC retention time rises from 950 s to 1190 s.

Compared with `Cc1cc(C(=O)N2CC(F)(F)C[C@H]2c2nc(C)no2)on1`, `Cc1noc([C@@H]2CN(C(=O)CC3CCCC3)C[C@H]2CO)n1` is lower in RP-LC retention time: 723 s for the first, 672 s for the second.

Compared with `Cc1ccc2c(c1)OCC(=O)N2CC(=O)NC1CC1`, `COc1ccc(S(=O)(=O)N2CCCOC2CNC(=O)C(=O)NC2CCCCC2)cc1` (stereo not given) is higher in RP-LC retention time: 701 s for the first, 822 s for the second.

Going from `CC1CCN(S(=O)(=O)N2CCC(C(=O)N3CCCC(c4nc(C5CCOCC5)no4)C3)CC2)CC1` (stereo not given) to `O=C(c1ccsc1)N1CCC[C@H]1c1nc(C2CCOCC2)n[nH]1`, the RP-LC retention time falls from 878 s to 592 s.

First: CCCn1nnc(NCc2ccc(-c3ccc(Br)cc3Br)o2)n1
Second: Cc1ccccc1Nc1c(-c2cc(Br)ccc2F)nc2ccc(Br)cn12
The RP-LC retention time of the first is higher: 1230 s for the first, 1120 s for the second.

Compared with `CCCNc1cc(N2CCC(CCC(=O)NC(CC)CC)CC2)ncn1`, `O=C(NC1CCS(=O)(=O)C1)c1ccc(N2CCCC2)nn1` (stereo not given) is lower in RP-LC retention time: 656 s for the first, 520 s for the second.

Going from `O=C(NCCCN1CCCC1=O)C(=O)NCCC1=CCCCC1` to `CNC(=O)[C@@H]1CN(C(=O)CCn2nc(C)cc2C)C[C@H]1c1n[nH]c(C)n1`, the RP-LC retention time falls from 686 s to 554 s.

Compared with `Cc1nc(N2CCN(c3ccccn3)CC2)c2c3c(sc2n1)CCC3`, `Cc1c(C(=O)N2CCOCC2)cnn1-c1cc(-c2nc(C(C)(C)C)no2)ccn1` is higher in RP-LC retention time: 569 s for the first, 931 s for the second.

Compared with `CCN1C(=O)c2cccnc2Sc2cc(C(=O)NCC(C)C)ccc21`, `CCOC(=O)c1noc2ncnc(Nc3cc(C)cc(C)c3)c12` is higher in RP-LC retention time: 748 s for the first, 1060 s for the second.

Going from `O=C1CC(c2noc(-c3cc(F)ccc3F)n2)CN1c1ccc(Cl)cc1` (stereo not given) to `CC(=O)Nc1ccc(CC(=O)O)cc1`, the RP-LC retention time falls from 1020 s to 620 s.
